In PMC8776894 (Communications Biology, 2022):

Experiments:
[1] = VK stability in PBS (HPLC); assay type: physicochemical; conditions: pH 7.4, 37 °C, 750 rpm, 120 min, VK 0.735 mM (Fig. 1 legend 73.5 nM), HPLC-UV 215 nm, peak area relative to 0 min, at least triplicate
Description: Proteolytic degradation of peptide-based drugs is generally considered as the main defect to limit systemic therapeutic applications. Therefore, high-performance liquid chromatography (HPLC) was used to assess the stability of VK in PBS or plasma at physiological pH (7.4) and temperature (37 °C). […] For neuropharmacology, crossing the BBB is a remarkable challenge, and VK was labeled with FITC in the N-terminus. FITC-labeled VK was then administered to stroke mice. After 30 min, these mice were imaged by an in vivo imaging system. […] Brains were collected at 0, 30, 60, 90, and 120 min and the distribution of VK was observed. […] To further evaluate whether VK was a cell-penetrating peptide, the oxygen-glucose deprivation/reoxygenation (OGD/R) model simulated I/R […] was established in HT22 hippocampal neuron cells and FITC-labeled VK was incubated for 120 min.
VK in PBS or plasma was detected by quantifying the peak areas relative to the initial peak areas (0 min). All stability tests were performed at least in triplicate.

MCAO mice = assay: Mortality after MCAO; assay type: in vivo, mouse; conditions: vehicle 29.06, P >0.05 vs vehicle
Description: Experimental ischemic stroke was performed by MCAO using published protocols[63],[64] with some modifications. In detail, mice (8–10 weeks)[65] were deeply anesthetized with 1.5% isoflurane in a mixture of 30% O2 and 69% N2O. Conditions of the blood gas were maintained at constant levels throughout the operation (PO2, 120 ± 10 mmHg; PCO2, 35 ± 3 mmHg) and temperatures in the temporal muscle and rectum were also maintained at 37.5 ± 0.2°C and 37.0 ± 0.1°C, respectively. Body temperature was kept in the normal range (36.5–37.5 °C) with a heating lamp and a heating pad during surgery. All surgical supplies and instruments were sterilized. The […] (CCA) and the external carotid artery were then gently separated. The blood flow of CCA was blocked with a sterile nylon suture (No.: MSMC21B120PK50, Ruiwode Bio-technology Co., Ltd., China), which was inserted into middle cerebral artery from CCA. The mice in the sham group underwent the same surgery without a nylon suture. After 60 min, the suture was removed and the blood circulation was recovered, MCAO/R was induced. Regional CBF was monitored in all stroke animals by LSCI (PeriScan PSI System; PERIMED, Stockholm, Sweden) to confirm a successful occlusion. […]

mice = assay: Histological analysis (H&E) of organs in acute toxicity test; assay type: in vivo, mouse
Description: Histological analysis. Organs such as heart, liver, kidney, and brain were excised and fixed in 10% formaldehyde for histological analysis. Their organs were collected and fixed with 4% PFA for 12-18 h, followed by dehydrating using an automatic dehydrator (Leica ASP-300S, Germany) and embedding in paraffin. Then, each sample was coronally cut (4 µm) using a rotatory microtome (Leica RM2245, Germany). The […]
Primary culture of neuron and microglia. Primary cortical neurons (1.0 × 10^5 cells per well in poly-L-lysine-coated 24-well plate) were obtained from fetal C57BL/6 mice of embryonic day 16–17.5, as previously reported1. After careful removal of meninges, cortical tissues were digested in dulbecco's modified eagle medium (DMEM, Gibco) containing 0.05% trypsin (Gibco) at 37 °C for 20 min. DMEM containing 10% FBS (Gibco) was then added to terminate the digestion. The mixture was homogenized by pipetting 120 times and was subsequently filtered with a 100-μm cell strainer (Biologix) and centrifuged at 1000 rpm for 5 min. Then, the cells were collected and resuspended by DMEM supplemented with 10% FBS (Gibco) and penicillin-streptomycin (Gibco).
The suspension was seeded into 24-well plates (10^5 cells/ml), and 4 h later, the medium was changed with Neurobasal medium (Gibco) containing 1% […] and 2% B27 supplement. […]

BV2 microglia cells = assay: CCK-8 cytotoxicity in BV2 cells; conditions: CCK8 assay
MCAO/R mice = conditions: mouse, in vivo
[2] = tested on: MCAO/R mice, brain homogenate; assay: Biochemical kits, oxidative stress in brain (SOD, MDA, LPO, glutathione); assay type: in vivo, mouse; conditions: 48 h
Description: […] The brain was collected, weighed, and placed in a homogenizer for homogenization. Using 0.9% normal saline (NS) as a homogenization medium, a 10% tissue homogenate was prepared, centrifuged at 3500 rpm for 10 min, and the supernatant was taken. […] Kits for ATP, glutamic acid, glutathione, lactic acid, LPO, MDA, and SOD were purchased from Nanjingjiancheng Bioengineering Institute, and were measured as previously described for specification.

HT22 cells (OGD/R) = assay: Seahorse extracellular acidification rate (ECAR); assay type: cell-based, mouse; conditions: dose-dependent
Description: HT22 cells were counted and plated at 8000 cells per well in a Seahorse XF96 Cell Culture Microplate for all experiments (Agilent). They were then treated with VK (0.0735 or 0.735 μM) for 24 h. […] Next, HT22 cells were washed after 24 h of incubation and were incubated in a 0% CO2 chamber at 37 °C for 1 h, before being placed into a Seahorse XFe96 Analyzer (Agilent). In OCR experiment, HT22 cells were treated, with 2 μM of oligomycin, 5 μM of FCCP, and 1 μM of rotenone and antimycin, respectively; to assess ECAR, they were treated with 1 μM of rotenone and antimycin and 50 mM of 2-DG. All OCR and ECAR data were normalized to cell number per well using WAVE (Agilent).

Gly-Arg-Pro-Hyp-Gly-Phe-Ser-Pro-Phe-Arg-Ile-Asp [VK, Vespakinin-M]
degradation rate of VK in PBS [1]: 62.4% | Death rate (mortality) of MCAO mice (MCAO mice; VK 150 μg/kg, 48 MCAO animals): 25% | Death rate (mortality) of MCAO mice (MCAO mice; VK 300 μg/kg, 64 MCAO animals): 18.75% | karyopyknosis and cellular swelling of hepatocytes in liver (mice; VK 96 and 384 mg/kg single i.p.): moderate | histopathology of brain, liver and kidney vs control (mice; all treated groups after 14 days, H&E): no changes at the cellular level | concentrations at which VK inhibited growth of BV2 cells (BV2 microglia cells): 73.5 to 735 µM | neurological deficits and infarct size vs vehicle (antagonist study) (MCAO/R mice): attenuated neurological deficits and infarct size | infarct volume, TTC staining (MCAO/R mice; ip): decreased infarct volume | glutathione in brain, between groups [2]: no obvious difference | MDA and LPO content in brain cortex vs vehicle ([2]; VK 150 and 300 µg/kg): decreased content of MDA and LPO | SOD activity in brain cortex vs vehicle ([2]; VK 150 and 300 µg/kg): enhanced SOD activity | glycolysis (extracellular acidification rate) in neurons (HT22 cells (OGD/R)): decreased glycolysis
